In paper PMC12323131, “CSRP2 promotes the glioblastoma mesenchymal phenotype via p130Cas-mediated NF-κB and MAPK pathways” (Journal of Experimental & Clinical Cancer Research : CR, 2025) one finds Kd data, which are given here for one compound.

In this assay the target is T1, CSRP2 recombinant protein (Homo sapiens, UniProt Q16527).
T1 construct: labelled with RED-NHS dye
T1 sequence (Q16527 1-193): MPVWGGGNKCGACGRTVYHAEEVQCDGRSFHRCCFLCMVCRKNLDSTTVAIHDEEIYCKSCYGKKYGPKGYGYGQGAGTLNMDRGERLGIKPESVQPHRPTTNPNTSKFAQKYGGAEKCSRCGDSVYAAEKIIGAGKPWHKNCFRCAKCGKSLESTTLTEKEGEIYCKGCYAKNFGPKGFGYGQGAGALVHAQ
Kind of assay: microscale thermophoresis. The format is binding.

Take `O=C1c2c(O)ccc(O)c2C(=O)c2c(NCCNCCO)ccc(NCCNCCO)c21` [Mitoxantrone]: the Kd (commonly the equilibrium constant for the complex coming apart) was found to be 370 nM.
